The target of this assay is Crimean-Congo hemorrhagic fever virus L protein viral ovarian tumor (vOTU) protease domain. As to the kind of experiment: CCHFV vOTU protease inhibitor potency, dose response, biochemical, fluorescence, Pep-AMC substrate (AID 720578). The conditions noted are these: recombinant CCHFV vOTU, Pep-AMC fluorescence cleavage.

Results on 48 molecules are retold here after PubChem BioAssay AID720578 (The Scripps Research Institute Molecular Screening Center, 2013).

The source made the active and inactive calls. The rule behind the calls is not given here. Bounds are passed on as bounds.

For `O=C1C=C(N2CCOCC2)c2ccccc2C1=O`, the IC50 is 4.21 µM.

As to `O=C(COC(=O)c1ccc([N+](=O)[O-])s1)Nc1ccccc1`, the IC50 result is “inactive”.

Turning to `CN(C1=C(NC(=O)c2ccccc2)C(=O)c2ccccc2C1=O)C1CCS(=O)(=O)C1` (stereo not drawn), the IC50 was 2.43 µM.

With `O=C1C=C(NCc2ccccc2)c2ccccc2C1=O`, the IC50 is 6.23 µM.

As to `O=C(NC(=S)Nc1ccccc1N1CCCC1)c1ccc(F)cc1`, the IC50 entry is “inactive”.

With `Nc1scc2c(C(=O)N/N=C/c3ccc(Cl)cc3)nn(-c3ccccc3)c(=O)c12`, the IC50 entry was “inactive”.

With `CCOC(=O)C1=C(COC(=O)c2ccc([N+](=O)[O-])s2)NC(=O)NC1C` (stereo not drawn), the IC50 is 7.84 µM.

Regarding `CCOC(=O)c1cc2c(=Cc3ccc(N(C)C)cc3)c3ccccc3n2[n+]1C`, the IC50 was 7.38 µM.

For the molecule `Cc1c(Cl)cnc(NC(=O)COC(=O)c2ccc([N+](=O)[O-])s2)c1Cl`, the IC50 is 7.08 µM.

As to `CCOC(=O)c1c2c(n(Cc3ccccc3)c1C)C(=O)C(=O)c1ccccc1-2`, the 50% inhibitory concentration (IC50) was 2.16 µM.

For the molecule `CC(=O)N(C1=C(Cl)C(=O)c2ccccc2C1=O)c1ccc(C(=O)O)cc1`, the IC50 was 2.74 µM.

For the molecule `Cc1ccc(S(=O)(=O)/N=C2\C=C(Nc3cccc(C(=O)O)c3)C(=O)c3ccccc32)c(C)c1`, the half-maximal inhibitory concentration (IC50) was 0.973 µM.

As for `CCOc1ccc(NC(=S)Nc2ccc3nsnc3c2)cc1`, the IC50 was 7.51 µM.

Take `CC(C)(C)c1cc[n+](C2=C([O-])c3ccccc3C(=O)/C2=N\S(=O)(=O)c2cccs2)cc1`: the IC50 is 6.78 µM.

In the case of `CN(C)c1cccc2c1c(NS(=O)(=O)c1cn(C)cn1)nn2C`, the IC50 result was “inactive”.

For `Cc1ccc(NC2=CC(=O)C(=O)c3ccccc32)cc1`, the IC50 was 7.14 µM.

Regarding `CCOC(=O)N1CCN(C2=C(NS(=O)(=O)c3ccc(C)cc3)C(=O)c3ccccc3C2=O)CC1`, the IC50 entry is “inactive”.

With `O=C(NC1=C(NC2CCS(=O)(=O)C2)C(=O)c2ccccc2C1=O)c1ccccc1` (stereo not drawn), the half-maximal inhibitory concentration (IC50) was 3.93 µM.

For the molecule `Cc1oc2c(c1C(=O)N1CCOCC1)C(=O)c1ccccc1C2=O`, the IC50 entry was “inactive”.

With `CN(C)c1ccc2nc3ccc(=O)cc-3sc2c1`, the IC50 entry is “inactive”.

`COc1cc(C=c2c3ccccc3n3c2cc(-c2ccccc2)[n+]3C)cc(OC)c1OC`: the IC50 is 6.76 µM.

Take `NC(=S)N=Nc1c(O)cc(O)c2[nH]c(=O)ccc12`: the IC50 is 9.78 µM.

As for `CN(C)c1ncc(C2=C(Cl)C(=O)C(N3CCCC3)=C(Cl)C2=O)s1`, the IC50 result is “inactive”.

On to `COc1ccc(Cc2nccc3cc(OC)c(OC)cc23)cc1OC`, for which the IC50 result was “inactive”.

Regarding `CC1CCCC(NC(=O)COC(=O)c2ccc([N+](=O)[O-])s2)C1C` (stereo not drawn), the concentration for half-maximal inhibition (IC50) was 9.22 µM.

As for `Cc1cc(=O)c2c(o1)C(=O)c1occc1C2=O`, the IC50 was 6.05 µM.

`O=C(O)CCCNc1cc(N2CCN(C(=O)c3ccco3)CC2)c2noc3c2c1C(=O)c1ccccc1-3`: the IC50 is 5.72 µM.

On to `CCOC(=O)/C=C(\C)Sc1cc(O)c2ccccc2c1O`, for which the 50% inhibitory concentration (IC50) is 1.57 µM.

Take `CCCCCCCCCCCCCCCCn1cc[n+](C)c1`: the IC50 entry is “inactive”.

Consider `COC1=C(N)C(=O)c2nc(C)ccc2C1=O`, for which the IC50 was 1.37 µM.

`CC1OC2CC(=O)OC2C2=C1C(=O)c1c(O)cccc1C2=O` (stereo not drawn): the concentration for half-maximal inhibition (IC50) was 3.45 µM.

For `COC1=CC(=O)c2c(ccc3ncnc(N)c23)C1=O`, the IC50 was 0.396 µM.

Consider `CCC(CNc1cc(OC)cc2cccnc12)NC1CCCCC1` (stereo not drawn), for which the IC50 was 6.32 µM.

For `O=C(N/N=C1\C/C(=N\NC(=O)c2ccncc2)c2ccccc21)c1ccncc1`, the half-inhibitory concentration (IC50) was 0.701 µM.

As to `CC(=O)N(/N=C1\Sc2ccccc2C1=O)c1ccccc1C`, the IC50 result is “inactive”.

Turning to `O=C1C=C(N2CC2)c2ccccc2C1=O`, the IC50 was 2.73 µM.

For the molecule `COC(CNC(=O)c1ccc2c3c(onc13)-c1ccccc1C2=O)OC`, the IC50 is 3.5 µM.

Take `C[n+]1c(-c2ccccc2)cc2c(=Cc3ccc([N+](=O)[O-])cc3)c3ccccc3n21`: the IC50 result was “inactive”.

For the molecule `CCOC(=O)c1cc2c(ccn2C)n1Cc1ccccc1C`, the IC50 was > 115 µM (inactive).

For `Nc1ccc(N2CCCCC2)c2nonc12`, the IC50 entry is “inactive”.

Regarding `CCc1cc[n+](C2=C([O-])c3ccccc3C(=O)/C2=N\S(=O)(=O)c2cccs2)cc1`, the IC50 is 4.4 µM.

`Cc1cnc(C=NNC(N)=S)c2cccc(N)c12`: the IC50 was 2.95 µM.

As for `CC(=O)Nc1ccc(S(=O)(=O)NC2=C(N3CCN(c4ccc(F)cc4)CC3)C(=O)c3ccccc3C2=O)cc1`, the IC50 entry was “inactive”.

In the case of `Cc1ccc(CNc2ccc(O)cc2)cc1`, the IC50 result was “inactive”.

For `O=C(COC(=O)c1ccc([N+](=O)[O-])s1)Nc1ccc(Cl)cn1`, the IC50 was 8.32 µM.

In the case of `O=C1C(Nc2cccc(O)c2)=C(N2CCCCC2)C(=O)c2ccccc21`, the IC50 is 3.6 µM.

For `CC[C@H](CO)Oc1cc(NCc2cccc(N)c2)c2ncn(C(C)C)c2c1`, the IC50 is 6.52 µM.

On to `O=C1C(=O)c2ccccc2-c2ccccc21`, for which the IC50 was 2.4 µM.

By IC50 is commonly meant the concentration needed to halve the response being measured.
